Patent publication US10869931B2, “Polyethylene glycol-modified angiogenesis inhibitor HM-1 and application thereof” (NANJING ANJI BIOLOGICAL TECHNOLOGY CO.,LTD, priority 2016, dated 2020)
Marks after values point to notes of the source that are not given here. Where no end group is shown, it is not given here.

Legend:
Lung cancer tumor cells = test: MTT proliferation inhibition, lung cancer cells; assay type: cell-based, human; set-up: concentration or dose not given beside the values; settings: 48 h
Summary of the method: (§1)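 Tumour cells plated at 2×10^4 cells/mL, attached overnight, then exposed to dilutions of mPEG-HM-1 for 48 h at 37 °C, 5% CO2. MTT added 4 h, formazan dissolved in DMSO, absorbance 570/630 nm; growth inhibition = 1 − treated/untreated, three independent repeats, mean±SD.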

sarcoma tumor cells = test: MTT proliferation inhibition, sarcoma cells; assay type: cell-based, human; set-up: concentration or dose not given beside the values; settings: 48 h
Summary of the method: as §1

[1] = system: Breast cancer tumor cells; test: MTT proliferation inhibition, breast cancer cells; assay type: cell-based, human; set-up: concentration or dose not given beside the values; settings: 48 h
Summary of the method: as §1

[2] = system: Pancreatic cancer tumor cells; test: MTT proliferation inhibition, pancreatic cancer cells; assay type: cell-based, human; set-up: concentration or dose not given beside the values; settings: 48 h
Summary of the method: as §1

[3] = system: retinal neovascular clusters in OIR C57/B16 mice; test: Retinal blood vessels in OIR mice; assay type: in vivo, mouse
Summary of the method: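 C57/B16 pups and mothers were held in 75% oxygen from postnatal day 7 to 12, then returned to room air. On day 13 the PEGylated HM-1 conjugates or saline were given by intravitreal injection; on day 17 retinal vessels were assessed after intracardiac Texas Red-tomato lectin, circulated 5 min.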

[4] = system: collagen induced arthritis (CIA) in DBA/1 mice; test: Collagen-induced mouse arthritis (CIA) model; assay type: in vivo
[5] = system: choroidal neovascularization in BN rats; test: Laser-induced choroidal neovascularization in BN rats (FFA); assay type: in vivo, rat; settings: 100 μg intravitreally once daily for 1 week (Table 53)
Summary of the method: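 Male BN rats (6–8 weeks) received 8 laser photocoagulation spots per eye around the optic disc (647.1 nm, 350 mW, 50 μm, 0.05 s). Confirmed models, 5 per group, were given saline or PEG-modified HM-1 intravitreally once daily for 1 week. FFA was done 3, 7, 14 and 28 days after dosing.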

[6] = 40 mg/kg subcutaneous from day 30 of modeling, CIA DBA/1 mice

Substance: mPEG2-NHS20k-Arg-Gly-Ala-Asp-Arg-Ala-Gly-Gly-Gly-Gly-Arg-Gly-Asp ({mPEG2‑NHS 20 kDa}-RGADRAGGGGRGD) [mPEG2-NHS20k-HM-1]
- rate of growth inhibition (Lung cancer tumor cells): 50.82 ± 12.68%
- rate of growth inhibition (sarcoma tumor cells): 48.91 ± 10.57%
- rate of growth inhibition [1]: 52.68 ± 17.25%
- rate of growth inhibition [2]: 52.13 ± 13.32%
- Neovascular clusters area ([3]; 100 μg intravitreal injection on day 13, retina evaluated on day 17): 0.112 ± 0.011 mm^2
- Inhibition rate ([3]; 100 μg intravitreal, neovascular clusters area vs control, day 17): 49.27%**
- Joint swelling [4, 6]: 0.72 ± 0.16 mm
- Left and right paw swelling [4, 6]: 0.75 ± 0.12 mm
- Clinical score ([4]; 40 mg/kg subcutaneous from day 30 of modeling, CIA DBA/1 mice, maximum score 16): 8.67 ± 1.35
- limbs score (in words) ([4]; CIA mice, subcutaneous, once every three days, vs model control group): significantly lower than that of the model control group
- CNV Incidence rate ([5]; Day 3 after administration): 52.72%
- leakage Spots # ([5]; Day 3 after administration, total spots 290-296 by table): 155
- CNV Incidence rate ([5]; Day 7): 52.20%
- leakage Spots # ([5]; Day 7, total spots 182-188 by table): 95
- CNV Incidence rate ([5]; Day 14): 45.99%
- leakage Spots # ([5]; Day 14, total spots 132-138 by table): 63
- CNV Incidence rate ([5]; Day 28): 42.65%
- leakage Spots # ([5]; Day 28, total spots 67-71 by table): 29
